Data taken from ChEMBL document CHEMBL1201862, “PubChem BioAssay data set” (2004).
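Cultured in 96-well plates, cells were exposed to test compound for 48 hours across five concentrations. GI50: concentration for 50% inhibition of growth.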 Activity calls are given as the source filed them. Rule as the data show it: active = GI50 up to about 1.1 µM and inactive = higher.

How the values were obtained:
Assay in all cases: NCI anticancer screen, dose series, 48 h
HL-60 = test system: HL-60
SK-MEL-5 = test system: SK-MEL-5
OVCAR-5 = test system: OVCAR-5
SF-268 = test system: SF-268
NCI-H460 = test system: NCI-H460
UO-31 = test system: UO-31
CAKI-1 = test system: CAKI-1
NCI-H23 = test system: NCI-H23
RXF 393 = test system: RXF 393
Malme-3M = test system: Malme-3M
K562 = test system: K562
786-0 = test system: 786-0
RPMI-8226 = test system: RPMI-8226
DU-145 = test system: DU-145
HOP-62 = test system: HOP-62
OVCAR-8 = test system: OVCAR-8
MDA-MB-231 = test system: MDA-MB-231
A498 = test system: A498
SF-539 = test system: SF-539

Measured: GI50

Cc1ccc2c(O)cc(-c3cc4ccccc4s3)nc2n1
active: UO-31 0.0353 µM
inactive: HL-60 > 100 µM | SK-MEL-5 74.5 µM | OVCAR-5 > 100 µM | SF-268 43.2 µM | NCI-H460 50.9 µM | CAKI-1 55 µM | NCI-H23 > 56.2 µM | RXF 393 33.7 µM | Malme-3M > 48.1 µM | K562 > 100 µM | 786-0 > 75.5 µM | RPMI-8226 4.33 µM | DU-145 > 100 µM | HOP-62 31.7 µM | OVCAR-8 30.3 µM | MDA-MB-231 > 100 µM

Cc1ccc(CCCC(=O)O)cc1C
inactive: HL-60 > 100 µM | SK-MEL-5 > 100 µM | OVCAR-5 > 100 µM | SF-268 63.7 µM | NCI-H460 > 100 µM | UO-31 > 100 µM | CAKI-1 > 100 µM | NCI-H23 > 100 µM | RXF 393 > 100 µM | Malme-3M > 100 µM | K562 > 100 µM | 786-0 > 100 µM | RPMI-8226 > 100 µM | DU-145 > 100 µM | HOP-62 > 100 µM | OVCAR-8 > 100 µM | MDA-MB-231 > 100 µM

N/N=C(\C(=O)Nc1ccc([N+](=O)[O-])cc1)C(C1=Nc2cc([N+](=O)[O-])ccc2NC1)[N+](=O)[O-] (stereo unspecified)
inactive: HL-60 > 100 µM | SK-MEL-5 74.1 µM | OVCAR-5 > 100 µM | A498 > 100 µM | SF-268 > 100 µM | NCI-H460 42.2 µM | UO-31 22.1 µM | SF-539 > 100 µM | CAKI-1 79.4 µM | NCI-H23 > 100 µM | RXF 393 > 100 µM | Malme-3M > 100 µM | K562 > 100 µM | 786-0 > 100 µM | RPMI-8226 > 100 µM | HOP-62 > 100 µM | OVCAR-8 > 100 µM | MDA-MB-231 > 100 µM

CCOC(=O)c1c(NCc2ccccc2)n(-c2ccccc2)c(=S)n(-c2ccccc2)c1=O
inactive: HL-60 35.6 µM | SK-MEL-5 94.6 µM | OVCAR-5 > 100 µM | SF-268 > 100 µM | NCI-H460 > 100 µM | UO-31 45.8 µM | NCI-H23 > 100 µM | RXF 393 > 100 µM | Malme-3M > 100 µM | K562 41.1 µM | 786-0 > 100 µM | RPMI-8226 35.6 µM | DU-145 > 100 µM | OVCAR-8 > 100 µM | MDA-MB-231 > 100 µM

COc1cc(C2c3c(ccc4ccccc34)C(=O)C3CCC(=O)N32)cc(OC)c1O (stereo unspecified)
inactive: HL-60 > 25 µM | OVCAR-5 > 25 µM | A498 > 25 µM | NCI-H460 > 25 µM | UO-31 > 25 µM | SF-539 > 25 µM | NCI-H23 > 25 µM | RXF 393 > 25 µM | K562 > 25 µM | 786-0 > 25 µM | RPMI-8226 > 25 µM | DU-145 > 25 µM | HOP-62 > 25 µM | OVCAR-8 > 25 µM

CCOC(=O)C1CN(C2CC2)CCC1=O (stereo unspecified)
inactive: HL-60 > 100 µM | SK-MEL-5 > 100 µM | OVCAR-5 > 100 µM | SF-268 > 100 µM | NCI-H460 > 100 µM | UO-31 > 100 µM | CAKI-1 > 100 µM | NCI-H23 > 100 µM | RXF 393 > 100 µM | Malme-3M > 100 µM | K562 > 100 µM | 786-0 > 100 µM | RPMI-8226 > 100 µM | DU-145 > 100 µM | HOP-62 > 100 µM | OVCAR-8 > 100 µM | MDA-MB-231 > 100 µM

O=C(C(=C(I)I)c1ccccc1)c1ccccc1
inactive: HL-60 13.2 µM | SK-MEL-5 16.8 µM | OVCAR-5 86.3 µM | A498 13.1 µM | SF-268 22.6 µM | NCI-H460 27.5 µM | UO-31 20.8 µM | SF-539 24.8 µM | CAKI-1 38.4 µM | NCI-H23 21 µM | Malme-3M 19.7 µM | K562 4.7 µM | 786-0 > 10 µM | RPMI-8226 19.5 µM | HOP-62 19.2 µM | OVCAR-8 37.2 µM

COC1(OC)CC2C(=O)N(Cc3ccccc3)C1C(S(=O)(=O)c1ccccc1)C2S(=O)(=O)c1ccccc1 (stereo unspecified)
inactive: HL-60 3.87 µM | SK-MEL-5 18.4 µM | OVCAR-5 19.9 µM | A498 18.2 µM | SF-268 14.1 µM | NCI-H460 27.7 µM | UO-31 17.4 µM | SF-539 14 µM | CAKI-1 13.8 µM | NCI-H23 13.6 µM | RXF 393 12.6 µM | Malme-3M 15.6 µM | K562 7.48 µM | 786-0 16.9 µM | RPMI-8226 15.9 µM | HOP-62 > 100 µM | OVCAR-8 8.07 µM

O=C(O)CCCc1ccc2c(c1)CC1(C2)Cc2ccc(CCCC(=O)O)cc2C1
inactive: HL-60 > 100 µM | SK-MEL-5 54 µM | OVCAR-5 > 100 µM | A498 > 100 µM | UO-31 > 100 µM | SF-539 > 100 µM | NCI-H23 > 100 µM | RXF 393 > 100 µM | Malme-3M > 100 µM | K562 > 100 µM | 786-0 > 100 µM | RPMI-8226 > 100 µM | HOP-62 > 100 µM | OVCAR-8 > 100 µM | MDA-MB-231 > 100 µM

S=C(NN=C1NCCCN1)Nc1ccccc1
inactive: HL-60 52.8 µM | SK-MEL-5 > 100 µM | OVCAR-5 > 100 µM | A498 > 100 µM | SF-268 > 100 µM | NCI-H460 > 100 µM | UO-31 > 100 µM | SF-539 > 100 µM | CAKI-1 > 100 µM | NCI-H23 > 100 µM | RXF 393 > 100 µM | Malme-3M > 100 µM | K562 99.5 µM | 786-0 > 100 µM | RPMI-8226 28.2 µM | HOP-62 > 100 µM | OVCAR-8 > 100 µM

NC1=C(O)c2cccc3cccc(c23)C1=O
inactive: HL-60 > 100 µM | SK-MEL-5 > 100 µM | OVCAR-5 > 100 µM | A498 > 100 µM | SF-268 > 100 µM | UO-31 51.6 µM | SF-539 > 100 µM | CAKI-1 > 100 µM | NCI-H23 > 100 µM | RXF 393 > 100 µM | Malme-3M > 100 µM | K562 > 100 µM | 786-0 > 100 µM | RPMI-8226 > 100 µM | OVCAR-8 > 100 µM

Cc1cccc(N2C(=O)C(=O)C(c3nc4ccccc4s3)C(=O)C2=O)c1C
inactive: SK-MEL-5 > 100 µM | OVCAR-5 > 100 µM | A498 > 100 µM | SF-268 > 100 µM | UO-31 > 100 µM | SF-539 > 100 µM | CAKI-1 > 100 µM | NCI-H23 > 100 µM | Malme-3M > 100 µM | K562 > 100 µM | 786-0 > 100 µM | RPMI-8226 > 100 µM | HOP-62 > 100 µM | OVCAR-8 > 100 µM
active: HL-60 < 0.01 µM

CC(=O)/C(=N\O)C(=O)Nc1ccc(Cl)cc1Cl
inactive: HL-60 > 100 µM | SK-MEL-5 > 100 µM | OVCAR-5 > 100 µM | A498 > 100 µM | SF-268 > 100 µM | NCI-H460 > 100 µM | UO-31 > 100 µM | SF-539 > 100 µM | CAKI-1 > 100 µM | NCI-H23 > 100 µM | RXF 393 > 100 µM | Malme-3M > 100 µM | K562 > 100 µM | 786-0 > 100 µM | RPMI-8226 > 100 µM | HOP-62 > 100 µM | OVCAR-8 > 100 µM

Cc1cccc(Nc2cn(CCOc3ccccc3)c(=O)n(CCOc3ccccc3)c2=O)c1
inactive: SK-MEL-5 > 100 µM | OVCAR-5 > 100 µM | A498 > 100 µM | SF-268 > 100 µM | NCI-H460 > 100 µM | UO-31 > 100 µM | CAKI-1 > 100 µM | NCI-H23 > 100 µM | RXF 393 > 100 µM | K562 > 100 µM | 786-0 > 100 µM | RPMI-8226 67.5 µM | DU-145 > 100 µM | HOP-62 > 100 µM

CC(C)=CCC/C(C)=C/COC(C)(C)C1=CCC(C)CC1.CC(C)=CCC/C(C)=C/COC1CC(C)CCC1=C(C)C (stereo unspecified)
inactive: HL-60 22 µM | SK-MEL-5 > 100 µM | OVCAR-5 > 100 µM | A498 > 100 µM | SF-268 > 100 µM | NCI-H460 > 100 µM | UO-31 > 100 µM | SF-539 6.07 µM | CAKI-1 > 100 µM | NCI-H23 > 100 µM | RXF 393 > 100 µM | Malme-3M > 100 µM | 786-0 > 100 µM | RPMI-8226 36.7 µM | DU-145 > 100 µM | HOP-62 > 100 µM | OVCAR-8 > 100 µM

Cn1c(-c2ccccc2)cc(-c2ccc3c(c2)OCO3)c1-c1cccs1
inactive: HL-60 > 100 µM | SK-MEL-5 > 100 µM | OVCAR-5 > 100 µM | A498 > 100 µM | SF-268 > 100 µM | NCI-H460 > 100 µM | UO-31 > 100 µM | SF-539 > 100 µM | NCI-H23 64.7 µM | RXF 393 > 100 µM | K562 > 100 µM | 786-0 > 100 µM | RPMI-8226 > 100 µM | DU-145 > 100 µM | HOP-62 > 100 µM | OVCAR-8 > 100 µM

Cc1ccc(S(=O)(=O)n2cnc(CC(NC(=O)C3CCC(=O)N3C(=O)OCc3ccccc3)C(=O)N3CCCC3C(=O)NN)c2)cc1 (stereo unspecified)
active: UO-31 1.02 µM
inactive: HL-60 > 100 µM | SK-MEL-5 > 100 µM | OVCAR-5 > 100 µM | A498 > 100 µM | NCI-H460 > 100 µM | NCI-H23 > 100 µM | Malme-3M > 100 µM | K562 > 100 µM | 786-0 > 100 µM | RPMI-8226 > 100 µM | HOP-62 > 100 µM | OVCAR-8 > 100 µM | MDA-MB-231 > 100 µM
